Test results taken from paper PMC5945515, “Measuring glucocorticoid receptor expression in vivo with PET” (Oncotarget, 2018).
Where two headings read alike, the source gives them in different places.

What was measured:
[1] = molecular target: GR; conditions: cited from earlier work
[2] = cited from earlier work
[3] = molecular target: T1, human GR (Homo sapiens, UniProt P04150); test: Competition binding assay on cells, human GR; conditions: Supplementary Table 1; read-out: KD for human GR
T1 construct: PC3 and DU145, two human prostate cancer models with endogenous GR expression; endogenous in cells; host or cells: DU145
T1 sequence (P04150 1-777): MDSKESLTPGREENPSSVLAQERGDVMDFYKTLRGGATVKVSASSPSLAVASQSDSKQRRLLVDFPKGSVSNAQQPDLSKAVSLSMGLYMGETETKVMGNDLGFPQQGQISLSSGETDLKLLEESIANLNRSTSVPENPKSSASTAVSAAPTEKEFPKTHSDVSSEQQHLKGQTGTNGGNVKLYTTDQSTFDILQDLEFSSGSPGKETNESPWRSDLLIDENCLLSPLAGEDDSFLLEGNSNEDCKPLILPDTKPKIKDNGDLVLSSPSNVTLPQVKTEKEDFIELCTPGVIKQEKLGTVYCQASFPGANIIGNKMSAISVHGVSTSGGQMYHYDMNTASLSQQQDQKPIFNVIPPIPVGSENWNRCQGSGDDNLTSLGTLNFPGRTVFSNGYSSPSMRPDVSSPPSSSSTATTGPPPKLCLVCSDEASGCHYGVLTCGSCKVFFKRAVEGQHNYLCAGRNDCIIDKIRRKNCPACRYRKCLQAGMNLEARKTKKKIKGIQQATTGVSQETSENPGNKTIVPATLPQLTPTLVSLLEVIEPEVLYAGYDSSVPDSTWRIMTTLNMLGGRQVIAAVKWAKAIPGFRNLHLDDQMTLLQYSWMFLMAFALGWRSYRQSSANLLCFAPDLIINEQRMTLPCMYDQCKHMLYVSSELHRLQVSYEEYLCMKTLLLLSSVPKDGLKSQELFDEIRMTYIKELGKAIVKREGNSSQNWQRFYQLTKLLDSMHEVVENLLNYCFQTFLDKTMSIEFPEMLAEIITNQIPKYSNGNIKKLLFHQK
Experimental: The KD for subfamily 3 group C nuclear hormone receptors was determined on cells by displacing ^3H-steroidal agonists for the respective receptor.
The cold ligands and ^3H-steroids were co-incubated on cells in PBS at room temperature for one hour. Following incubation, the cells were washed twice with ice cold PBS and the unbound activity was retained for analysis. The cells were lysed with 1 mL of 1 M NaOH and collected. Bound and unbound fractions were counted in a liquid scintillation counter and expressed as a percentage of the total activity added per equal relative number of cells. […] The specific binding component was plotted against the log of the competing ligand and curve fit using a non-linear regression algorithm with PRISM software.

[4] = PET/CT and biodistribution in tumor naive C57BL6/J mice; format: in vivo, mouse
[5] = Log P determination (octanol:water); format: physicochemical
Experimental: To a microcentrifuge tube containing 1 mL of octanol:water (1:1 v/v) was added 50 μL of ^18F-GR02 (total activity = 37 MBq). The solution was vortexed vigorously for 30 sec, and the biphasic layers were allowed to separate. The layers were manually pipetted into new microcentrifuge tubes, and the activity of each fraction was read with a dose calibrator. The water fraction contained 1.7 MBq, and the octanol fraction contained 35.3 MBq.

[6] = PET/CT and biodistribution in tumor naive C57BL6/J mice; format: in vivo, mouse; remark: listed apart in the source
Experimental: All radiotracers were administered via tail vein injection in < 300 μL PBS. Intact male C57BL6/J or nu/nu mice were treated with vehicle or mife. (25 mg/kg) via oral gavage for four days prior to injection with ∼11 MBq of ^18F-GR02. Mice were anesthetized and imaged with a Siemens Inveon small animal PET/CT at dedicated time points post injection. Each mouse was imaged until 20 million coincident events were collected. All imaging data was reconstructed, decay corrected, and analyzed with AMIDE or ASIPro software. Maximum intensity projections were generated with ASIPro software. ASIPro software was also used to draw manual two dimensional regions of interest to calculate SUV data for static or dynamic acquisitions.
(§1) At dedicated time points post injection, mice were humanely euthanized with CO2 (g) asphyxiation and blood and tissues were removed, washed, dried and weighed. The activity associated with each tissue was measured with a gamma counter. The data was decay corrected and expressed as a percentage of the injected dose per gram of tissue with PRISM software.

[7] = system: subcutaneous PC3 tumors; test: Biodistribution in mice bearing subcutaneous PC3 tumors; format: in vivo, mouse; conditions: one hour post injection
Experimental: (§2) All animal experiments were conducted with prior approval from IACUC at UCSF. Five to seven week old male nu/nu, intact or adx C57BL6/J mice were purchased from Charles River. Adx mice were provided drinking water supplemented with 0.9% NaCl (aq.). Male nu/nu mice received a subcutaneous bolus of 1 × 10^7 PC3 or DU145 cells in Matrigel and growth media (1:1 v/v) in the flank for tumor imaging studies with ^18F-GR02. For subrenal capsule tumor implants, 4–6 week old male Rag2 knockout mice (Taconic Farms) were placed under anesthesia with ∼2% isoflurane. A half centimeter dorsal midline incision was performed, and one kidney was gently pulled though the incision by applying pressure to the muscle wall. The kidney capsule was lifted from the parenchyma of the kidney, and PC3 cells (5 × 10^6 in 50 μL PBS) were injected into the pocket under the capsule. […]
(§3) All radiotracers were administered via tail vein injection in < 300 μL PBS. […] All imaging data was reconstructed, decay corrected, and analyzed with AMIDE or ASIPro software. […]
as §1

[8] = system: subcutaneous DU145 tumors; test: Biodistribution in mice bearing subcutaneous DU145 tumors; format: in vivo, mouse; conditions: one hour post injection
Experimental: as §2, §3, §1

[9] = system: subrenal capsule PC3 tumors; test: Biodistribution in mice bearing subrenal capsule PC3 tumors; format: in vivo, mouse
Experimental: All animal experiments were conducted with prior approval from IACUC at UCSF. Five to seven week old male nu/nu, intact or adx C57BL6/J mice were purchased from Charles River. Adx mice were provided drinking water supplemented with 0.9% NaCl (aq.). Male nu/nu mice received a subcutaneous bolus of 1 × 10^7 PC3 or DU145 cells in Matrigel and growth media (1:1 v/v) in the flank for tumor imaging studies with ^18F-GR02. For subrenal capsule tumor implants, 4–6 week old male Rag2 knockout mice (Taconic Farms) were placed under anesthesia with ∼2% isoflurane. A half centimeter dorsal midline incision was performed, and one kidney was gently pulled though the incision by applying pressure to the muscle wall. The kidney capsule was lifted from the parenchyma of the kidney, and PC3 cells (5 × 10^6 in 50 μL PBS) were injected into the pocket under the capsule. The kidney was placed back and the skin incision was closed using 3 surgical sutures. The mice were treated once with Carprofen (5–10 mg/kg) to ease recovery. Mice were observed over 24 hours for signs of post-operative pain, bleeding and/or other complications. Tumor progression was followed for 7–14 days after surgery with a 14 T Agilent small animal MRI to identify tumors of suitable size to conduct the biodistribution study.
as §1

[10] = octanol:water 1:1, total activity 37 MBq
[11] = mouse intact, 60 minutes post injection
[12] = intact male nu/nu mice, vehicle
[13] = mouse adrenalectomized, 60 minutes post injection

For CC1(C)O[C@@H]2C[C@H]3[C@@H]4CCC5=CC(=O)C=C[C@]5(C)[C@@]4(F)[C@@H](O)C[C@]3(C)[C@]2(C(=O)CF)O1 [21-[18F]-deoxytriamcinolone acetonide], the Kd ([1]; ref PMID 1526811) is listed as 2.1 nM.

In the case of CC12C=CC(=O)C=C1CCC1C2C(=O)CC2(C)C1CCC2(O)C(=O)C[18F] (stereo not drawn) [21-[18F]-prednisone], the logP o/w ([2]; ref PMID 3495649) is listed as 2.1.

For C=CCC1Oc2cccc(OC)c2-c2ccc3c(c21)C(C)=CC(C)(C)N3 (stereo not drawn) [[11 C]-Al-438], the Kd ([1]; ref PMID 17499506) is given as 8.1 nM.

In the case of C=CCC1Oc2cccc(O[11CH3])c2-c2ccc3c(c21)C(C)=CC(C)(C)N3 (stereo not drawn) [[11 C]-Al-438], the logP o/w ([2]; ref PMID 17499506) is listed as 6.13.

CC12C=CC(=O)C=C1CCC1C2C(O)CC2(C)C1CCC2(O)C(=O)COCCCF (stereo not drawn) [^18F-GR01] gave a Kd [3] of 3.8 nM.

Work on CC12C=CC(=O)C=C1CCC1C2C(O)CC2(C)C1CCC2(O)C(=O)COCCC[18F] (stereo not drawn) [^18F-GR01] yielded a bone associated activity ([4]; intact male C57BL6/J mice, 60 minutes post injection) of ~20 % ID/g.

CC12C=CC(=O)C=C1CCC1C2C(O)CC2(C)C1CCC2(O)C(=O)CNC(=O)c1ccc(F)cc1 (stereo not drawn) [^18F-GR02] showed a Kd [3] of 15.9 nM.

With CC12C=CC(=O)C=C1CCC1C2C(O)CC2(C)C1CCC2(O)C(=O)CNC(=O)c1ccc([18F])cc1 (stereo not drawn) [^18F-GR02] the “activity in the octanol fraction” value [5, 10] was 35.3 MBq, the “activity in the water fraction” value [5, 10] was 1.7 MBq and the “log P (o/w)” value ([5]; octanol:water 1:1 v/v) was 1.33. For the same compound, the “fold higher specific binding in liver vs prior GR-targeted radiotracers” value ([6]; compared with literature data of Supplementary Table 2) was 3–10 fold, the Bone [6, 11] was 0.28 ± 0.1 % ID/g and the Brain [6, 11] was 0.06 ± 0.02 % ID/g. The Heart [6, 11] was 0.81 ± 0.5 % ID/g, the Lung [6, 11] was 0.64 ± 0.4 % ID/g and the Spleen [6, 11] was 0.63 ± 0.1 % ID/g. For the same compound, the “uptake in subcutaneous PC3 tumors after mife.” value ([7]; four days prior mife. 25 mg/kg) was 0.18 ± 0.07 % ID/g, the “uptake in subcutaneous PC3 tumors” value [7, 12] was 0.37 ± 0.1 % ID/g and the “uptake in subcutaneous DU145 tumors after mife.” value ([8]; four days prior mife. 25 mg/kg) was 0.23 ± 0.09 % ID/g. The “uptake in subcutaneous DU145 tumors” value [8, 12] was 0.45 ± 0.2 % ID/g, the “fold higher uptake in renal capsule tumor vs subcutaneous PC3 tumor” value ([9]; mouse, in vivo, sc) was ~16 fold and the “uptake in renal capsule PC3 tumor after mife.” value ([9]; pretreatment with mife. 25 mg/kg, 60 minutes post injection) was 2.84 ± 1.8 % ID/g. For the same compound, the “uptake in renal capsule PC3 tumor” value ([9]; vehicle, 60 minutes post injection) was 6.24 ± 1.0 % ID/g, the “uptake in the brain across the treatment arms” value ([4]; C57BL6/J mice, intact/adx, vehicle/mife., 60 min post injection) was 0.05–0.2 % ID/g and the Blood [4, 13] was 2.36 ± 1.6 % ID/g. For the same compound, the Bone [4, 13] was 1.25 ± 0.8 % ID/g, the Brain [4, 13] was 0.17 ± 0.05 % ID/g and the Heart [4, 13] was 2.39 ± 0.6 % ID/g. For the same compound, the Kidney [4, 13] was 13.42 ± 3.1 % ID/g, the Liver [4, 13] was 21.83 ± 3.3 % ID/g and the Lung [4, 13] was 2.15 ± 1.0 % ID/g. It also gave a Muscle [4, 13] of 1.15 ± 0.4 % ID/g, a Spleen [4, 13] of 1.41 ± 0.6 % ID/g and a Stomach [4, 13] of 5.54 ± 2.4 % ID/g. The Blood [4, 11] was 0.83 ± 0.3 % ID/g, the Kidney [4, 11] was 3.96 ± 1.9 % ID/g and the Liver [4, 11] was 7.98 ± 1.5 % ID/g. For the same compound, the Muscle [4, 11] was 0.36 ± 0.3 % ID/g, the Stomach [4, 11] was 0.62 ± 0.1 % ID/g and the “time of peak accumulation in the liver post injection” value ([4]; one hour dynamic PET scan, intact male C57BL6/J mouse) was ≤ 10 min.

In the case of CC#C[C@]1(O)CC[C@H]2[C@@H]3CCC4=CC(=O)CCC4=C3[C@@H](c3ccc(N(C)C)cc3)C[C@@]21C [mife., mifepristone, reference compound], the “effect on 18F-GR02 uptake in liver, spleen, small intestine and stomach” value ([6]; intact C57BL6/J mice, 25 mg/kg daily oral gavage for four days, one hour post injection) is reported as “statistically significant suppression” and the “effect on 18F-GR02 uptake in several tissues, including liver, kidney and stomach” value ([4]; adx C57BL6/J mice, mife. pretreatment) is reported as “suppressed ^18F-GR02 uptake to a statistically significant extent”.
